Target: T1, human 5-HT2c receptor (Homo sapiens, UniProt P28335)
T1 construct: expressed in transfected cells
T1 sequence (P28335 33-458): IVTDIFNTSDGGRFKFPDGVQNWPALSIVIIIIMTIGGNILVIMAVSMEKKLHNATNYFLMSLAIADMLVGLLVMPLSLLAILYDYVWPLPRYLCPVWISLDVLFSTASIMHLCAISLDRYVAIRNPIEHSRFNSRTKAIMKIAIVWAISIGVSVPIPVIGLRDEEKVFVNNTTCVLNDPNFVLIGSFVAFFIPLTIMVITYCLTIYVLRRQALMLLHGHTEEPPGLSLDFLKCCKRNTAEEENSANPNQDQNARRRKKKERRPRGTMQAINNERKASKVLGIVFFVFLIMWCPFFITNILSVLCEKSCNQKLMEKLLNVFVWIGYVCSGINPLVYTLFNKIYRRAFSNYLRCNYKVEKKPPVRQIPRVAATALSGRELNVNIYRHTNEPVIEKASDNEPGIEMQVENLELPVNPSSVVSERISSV
Assay: 5-HT2c receptor affinity assay (displacement of 3H-labelled 5-HT, Scintillation Proximity Assay)
Conditions: displacement of 3H-5-HT from membranes of transfected HEK293 cells expressing human 5-HT2c receptor; non-specific binding 5 μM mianserin
Experimental: The 5-HT2c receptor affinity of compounds in the Examples was determined in competition experiments, where the ability of each compound in serial dilution to displace ^3H-labelled 5-HT, bound to membranes prepared from a transfected HEK293 cell line stably expressing the human 5-HT2c receptor protein was monitored by Scintillation Proximity Assay technology. Non-specific binding was defined using 5 μM mianserin. Typically, the 5HT2c receptor affinity values (Ki, nM) were in the range of 1 nM to 1500 nM.

c1ccc2c(c1)NCC(COc1nc3ccccc3nc1N1CCNCC1)O2 (centres unmarked) [Example 167, 2-(3,4-Dihydro-2H-1,4-benzoxazin-2-ylmethoxy)-3-(1-piperazinyl)quinoxaline] and c1ccc2oc(COc3nccnc3N3CCNCC3)cc2c1 [Example 122, 2-(Benzofuran-2-ylmethoxy)-3-(1-piperazinyl)pyrazine] are within 1.5-fold of each other in Ki: 34 nM for the first, 45 nM for the second.

Going from c1cncc(OCCOc2nccnc2N2CCNCC2)c1 [Example 150, 2-(3-Pyridyloxy)ethyl 3-(1-piperazinyl)-2-pyrazinyl ether] to c1cc(OCCOc2nccnc2N2CCNCC2)ccn1 [Example 151, 2-(4-Pyridyloxy)ethyl 3-(1-piperazinyl)-2-pyrazinyl ether], the Ki rises from 50 nM to 185 nM (3.7-fold). The first binds more tightly here.

Compared with C[C@@H]1CNCCN1c1nccnc1OCCOc1cccnc1 [Example 173, (2R)-Methyl-1-{3-[2-(3-pyridinyloxy)ethoxy]-2-pyrazinyl}piperazine], C[C@@H]1CNCCN1c1nccnc1OCCOc1cccnc1Cl [Example 194, (2R)-1-(3-{2-[(2-Chloro-3-pyridinyl)oxy]ethoxy}-2-pyrazinyl)-2-methylpiperazine] is 3.2-fold lower in Ki: 16 nM for the first, 5 nM for the second. The second binds more tightly here.

Cc1nc(OCCOc2ccccc2)c(N2CCNCC2)nc1C [Example 183, 5,6-Dimethyl-2-(2-phenoxyethoxy)-3-(1-piperazinyl)pyrazine] and c1ccc(COc2cccc(OCCOc3nccnc3N3CCNCC3)c2)cc1 [Example 231, 2-{2-[3-(Benzyloxy)phenoxy]ethoxy}-3-(1-piperazinyl)pyrazine] are within 1.5-fold of each other in Ki: 10 nM for the first, 12 nM for the second.

First: NC1CCN(c2nccnc2OCCOc2ccccc2Cl)C1 (centres unmarked) [Example 23, 2-(2-Chlorophenoxy)ethyl 3-(3-amino-1-pyrrolidinyl)-2-pyrazinyl ether]
Second: O=C1CCc2c(OCCOc3nccnc3N3CCNCC3)cccc21 [Example 82, 2-(1-Oxoindanyl-4-yloxy)ethyl 3-(1-piperazinyl)-2-pyrazinyl ether]
The Ki of the first is 3.2-fold higher: 377 nM for the first, 116 nM for the second. The second binds more tightly here.

Going from COc1cc(OC)cc(OCCOc2nccnc2N2CCNCC2)c1 [Example 57, 2-(3,5-Dimethoxyphenoxy)ethyl 3-(1-piperazinyl)-2-pyrazinyl ether] to c1ccc(CCCOc2nccnc2N2CCNCC2)nc1 [Example 125, 2-(1-piperazinyl)-3-[3-(2-pyridinyl)propoxy]pyrazine], the Ki rises from 24 nM to 171 nM (7.1-fold). The first binds more tightly here.

Target: T2, 5-HT2c receptor (Mus musculus, UniProt P34968)
T2 construct: mice that express the normal 5-HT2c receptor; host or cells: mice (in vivo)
T2 sequence (P34968 33-459): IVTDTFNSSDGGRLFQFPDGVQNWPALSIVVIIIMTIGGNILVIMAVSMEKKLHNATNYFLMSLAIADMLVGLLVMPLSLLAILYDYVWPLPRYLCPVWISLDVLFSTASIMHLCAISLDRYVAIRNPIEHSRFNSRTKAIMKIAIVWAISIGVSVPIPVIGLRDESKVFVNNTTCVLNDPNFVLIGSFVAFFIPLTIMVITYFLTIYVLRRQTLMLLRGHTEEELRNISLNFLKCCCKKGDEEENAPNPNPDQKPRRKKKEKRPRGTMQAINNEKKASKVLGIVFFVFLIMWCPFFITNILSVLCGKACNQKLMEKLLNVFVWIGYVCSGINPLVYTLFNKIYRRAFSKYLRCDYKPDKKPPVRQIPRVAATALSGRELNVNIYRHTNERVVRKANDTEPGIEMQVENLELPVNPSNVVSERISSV
Assay: not given
Conditions: mice that express the normal 5-HT2c receptor; cited from earlier work

For Clc1cccc(N2CCNCC2)c1 [mCPP, m-chlorophenylpiperazine], the body weight effect is listed as “causes weight loss”.

Test system: 5-HT2c receptor
Assay: not given
Conditions: mice expressing the mutated inactive form of the 5-HT2c receptor; cited from earlier work

For Clc1cccc(N2CCNCC2)c1 [mCPP, m-chlorophenylpiperazine], the body weight effect is listed as “lacks activity”.

Test system: not given
Assay: not given
Conditions: controlled studies; cited from earlier work

For CNCCC(Oc1ccc(C(F)(F)F)cc1)c1ccccc1 (centres unmarked) [fluoxetine], the body weight effect is listed as “weight reduction”.
In the case of CCN[C@@H](C)Cc1cccc(C(F)(F)F)c1 [dexfenfluramine], the body weight effect is listed as “weight reduction”.

Same assay, conditions: obese subjects, after 2 weeks of treatment; cited from earlier work

For Clc1cccc(N2CCNCC2)c1 [mCPP, m-chlorophenylpiperazine], the body weight effect is given as “slight but sustained reduction in body weight”.

From patent US7071180B2, “Certain arylaliphatic and heteroaryl-aliphatic piperazinyl pyrazines and their use in the treatment of serotonin-related diseases” (Biovitrum AB, priority 1999, dated 2006)
